The source of these data is patent US6713455B2, “6-O-carbamate-11,12-lacto-ketolide antimicrobials” (Ortho-McNeil Pharmaceutical, Inc., priority 2001, dated 2004).

In brackets after ≈: the same amount, converted by molar mass. Some results are limits rather than exact numbers.

Holding throughout (assay): MIC, microdilution broth method (NCCLS)
Format in all cases: cell-based
Conditions in all cases: 35° C., 16-20 hours
For orientation: Broth dilution looks for growth in wells or tubes with falling amounts of substance.

Assay [1] relates to S. pneumoniae ATCC49619. On the procedure:
(§1) Minimal inhibitory concentration (MIC) has been an indicator of in vitro antibacterial activity widely used in the art. The in vitro antimicrobial activity of the compounds was determined by the microdilution broth method following the test method from the National Committee for Clinical Laboratory Standards (NCCLS). This method is described in the NCCLS Document M7-A4, Vol.17, No.2, “Methods for Dilution Antimicrobial Susceptibility Test for Bacteria that Grow Aerobically—Fourth Edition”, which is incorporated herein by reference.
(§2) In this method two-fold serial dilutions of drug in cation adjusted Mueller-Hinton broth are added to wells in microdilution trays. The test organisms are prepared by adjusting the turbidity of actively growing broth cultures so that the final concentration of test organism after it is added to the wells is approximately 5×10^4 CFU/well.
(§3) Following inoculation of the microdilution trays, the trays are incubated at 35° C. for 16-20 hours and then read. […] The amount of growth in the wells containing the test compound is compared with the amount of growth in the growth-control wells (no test compound) used in each tray. As set forth in Table 1, compounds of the present invention were tested against a variety of Gram positive and Gram negative pathogenic bacteria resulting in a range of activities depending on the organism tested.

Assay [2] relates to E. faecalis ATCC29212. As for the experimental part: as §1, §2, §3
For assay [3], the system named is E. coli OC2605. As for the experimental part: as §1, §2, §3
In assay [4] the test system is S. aureus ATCC29213. On the procedure:
as §1, §2, §3

Assay [5] has as its system H. influenzae ATCC49247. On the procedure: as §1, §2, §3

As to `CCC1OC(=O)C(C)C(=O)C(C)C(OC2OC(C)CC(N(C)C)C2O)C(C)(OC(=O)NCC=Cc2ccc(Br)cc2)CC(C)C(=O)C(C)C2CC(=O)OC12C` (centres unmarked) [Compound 22], the “MIC (μg/mL) D” value in assay [1] came out at 0.06 µg/mL (≈ 0.0718 µM). The “MIC (μg/mL) C” value in assay [2] stood at 0.25 µg/mL (≈ 0.299 µM). In addition, in assay [3], the “MIC (μg/mL) A” value was 16 µg/mL (≈ 19.1 µM). For the same compound, in assay [4], the “MIC (μg/mL) B” value turned out to be 1 µg/mL (≈ 1.2 µM). Moreover, the “MIC (μg/mL) E” value in assay [5] worked out at 4 µg/mL (≈ 4.79 µM).

As for `CCC1OC(=O)C(C)C(=O)C(C)C(OC2OC(C)CC(N(C)C)C2O)C(C)(OC(=O)N(CC=Cc2ccc(Br)cc2)CC=Cc2ccc(Br)cc2)CC(C)C(=O)C(C)C2CC(=O)OC12C` (centres unmarked) [Compound 23], the “MIC (μg/mL) D” value in assay [1] was 2 µg/mL (≈ 1.94 µM). The “MIC (μg/mL) C” value in assay [2] amounted to 2 µg/mL (≈ 1.94 µM). In addition, the “MIC (μg/mL) A” value in assay [3] was >16 µg/mL. Further, the “MIC (μg/mL) B” value in assay [4] is 8 µg/mL (≈ 7.76 µM). Further, the “MIC (μg/mL) E” value in assay [5] was >16 µg/mL.

Take `CCC1OC(=O)C(C)C(=O)C(C)C(OC2OC(C)CC(N(C)C)C2O)C(C)(OC(=O)NCc2ccc(-c3ccccn3)cc2)CC(C)C(=O)C(C)C2CC(=O)OC12C` (centres unmarked) [Compound 26]: in assay [1], the “MIC (μg/mL) D” value is 0.06 µg/mL (≈ 0.0743 µM). The “MIC (μg/mL) C” value in assay [2] stood at 0.12 µg/mL (≈ 0.149 µM). Moreover, the “MIC (μg/mL) A” value in assay [3] is >16 µg/mL. Moreover, in assay [4], the “MIC (μg/mL) B” value turned out to be 1 µg/mL (≈ 1.24 µM). For the same compound, the “MIC (μg/mL) E” value in assay [5] was determined as 8 µg/mL (≈ 9.9 µM).

In the case of `CCC1OC(=O)C(C)C(=O)C(C)C(OC2OC(C)CC(N(C)C)C2O)C(C)(OC(=O)NCC=Cc2ccc3ncccc3c2)CC(C)C(=O)C(C)C2CC(=O)OC12C` (centres unmarked) [Compound 27], in assay [1], the “MIC (μg/mL) D” value stood at 0.03 µg/mL (≈ 0.0371 µM). Besides, in assay [2], the “MIC (μg/mL) C” value was 0.06 µg/mL (≈ 0.0743 µM). In addition, the “MIC (μg/mL) A” value in assay [3] was determined as 16 µg/mL (≈ 19.8 µM). Moreover, the “MIC (μg/mL) B” value in assay [4] came out at 0.5 µg/mL (≈ 0.619 µM). Also, in assay [5], the “MIC (μg/mL) E” value stood at 1 µg/mL (≈ 1.24 µM).

In the case of `CCC1OC(=O)C(C)C(=O)C(C)C(OC2OC(C)CC(N(C)C)C2O)C(C)(OC(=O)NCc2ccc3ccccc3n2)CC(C)C(=O)C(C)C2CC(=O)OC12C` (centres unmarked) [Compound 28], the “MIC (μg/mL) D” value in assay [1] is 0.12 µg/mL (≈ 0.153 µM). Further, in assay [2], the “MIC (μg/mL) C” value was found to be 0.5 µg/mL (≈ 0.639 µM). In addition, the “MIC (μg/mL) A” value in assay [3] is >16 µg/mL. The “MIC (μg/mL) B” value in assay [4] stood at 2 µg/mL (≈ 2.56 µM). For the same compound, in assay [5], the “MIC (μg/mL) E” value was 8 µg/mL (≈ 10.2 µM).

With `CCC1OC(=O)C(C)C(=O)C(C)C(OC2OC(C)CC(N(C)C)C2O)C(C)(OC(=O)NCC=Cc2ccc(-c3ccccn3)cc2)CC(C)C(=O)C(C)C2CC(=O)OC12C` (centres unmarked) [Compound 29], the “MIC (μg/mL) D” value in assay [1] came out at 0.06 µg/mL (≈ 0.0719 µM). In addition, the “MIC (μg/mL) C” value in assay [2] is 0.25 µg/mL (≈ 0.3 µM). Moreover, the “MIC (μg/mL) A” value in assay [3] is >16 µg/mL. In assay [4], the “MIC (μg/mL) B” value amounted to 0.5 µg/mL (≈ 0.6 µM). Moreover, the “MIC (μg/mL) E” value in assay [5] turned out to be 2 µg/mL (≈ 2.4 µM).

As to `CCC1OC(=O)C(C)C(=O)C(C)C(OC2OC(C)CC(N(C)C)C2O)C(C)(OC(=O)NCC=Cc2ccc3cccnc3c2)CC(C)C(=O)C(C)C2CC(=O)OC12C` (centres unmarked) [Compound 31], the “MIC (μg/mL) D” value in assay [1] was 0.03 µg/mL (≈ 0.0371 µM). Besides, the “MIC (μg/mL) C” value in assay [2] was 0.06 µg/mL (≈ 0.0743 µM). In addition, the “MIC (μg/mL) A” value in assay [3] came to 16 µg/mL (≈ 19.8 µM). Moreover, in assay [4], the “MIC (μg/mL) B” value is 0.25 µg/mL (≈ 0.309 µM). For the same compound, the “MIC (μg/mL) E” value in assay [5] was >16 µg/mL.

`CCC1OC(=O)C(C)C(=O)C(C)C(OC2OC(C)CC(N(C)C)C2O)C(C)(OC(=O)NCC=Cc2ccc(-c3ncccn3)cc2F)CC(C)C(=O)C(C)C2CC(=O)OC12C` (centres unmarked) [Compound 32]: the “MIC (μg/mL) D” value in assay [1] is 0.06 µg/mL (≈ 0.0703 µM). Also, the “MIC (μg/mL) C” value in assay [2] turned out to be 0.25 µg/mL (≈ 0.293 µM). Moreover, in assay [3], the “MIC (μg/mL) A” value was >16 µg/mL. The “MIC (μg/mL) B” value in assay [4] was determined as 0.5 µg/mL (≈ 0.586 µM). Further, the “MIC (μg/mL) E” value in assay [5] came out at 8 µg/mL (≈ 9.38 µM).

On to `CCC1OC(=O)C(C)C(=O)C(C)C(OC2OC(C)CC(N(C)C)C2O)C(C)(OC(=O)NCC=Cc2ccccn2)CC(C)C(=O)C(C)C2CC(=O)OC12C` (centres unmarked) [Compound 33], for which the “MIC (μg/mL) D” value in assay [1] is 0.12 µg/mL (≈ 0.158 µM). In assay [2], the “MIC (μg/mL) C” value was 0.5 µg/mL (≈ 0.66 µM). In assay [3], the “MIC (μg/mL) A” value is >16 µg/mL. Also, the “MIC (μg/mL) B” value in assay [4] was determined as 2 µg/mL (≈ 2.64 µM). In assay [5], the “MIC (μg/mL) E” value is 8 µg/mL (≈ 10.6 µM).

On to `CCC1OC(=O)C(C)C(=O)C(C)C(OC2OC(C)CC(N(C)C)C2O)C(C)(OC(=O)NCC=Cc2cccnc2)CC(C)C(=O)C(C)C2CC(=O)OC12C` (centres unmarked) [Compound 34], for which, in assay [1], the “MIC (μg/mL) D” value is 0.06 µg/mL (≈ 0.0792 µM). Further, the “MIC (μg/mL) C” value in assay [2] stood at 0.12 µg/mL (≈ 0.158 µM). In assay [3], the “MIC (μg/mL) A” value is >16 µg/mL. Also, the “MIC (μg/mL) B” value in assay [4] came out at 0.5 µg/mL (≈ 0.66 µM). Besides, the “MIC (μg/mL) E” value in assay [5] was 2 µg/mL (≈ 2.64 µM).

In the case of `CCC1OC(=O)C(C)C(=O)C(C)C(OC2OC(C)CC(N(C)C)C2O)C(C)(OC(=O)NCC=Cc2ccc(-c3ccccc3)nc2)CC(C)C(=O)C(C)C2CC(=O)OC12C` (centres unmarked) [Compound 35], the “MIC (μg/mL) D” value in assay [1] is 0.12 µg/mL (≈ 0.144 µM). The “MIC (μg/mL) C” value in assay [2] came out at 0.25 µg/mL (≈ 0.3 µM). In addition, the “MIC (μg/mL) A” value in assay [3] is >16 µg/mL. Moreover, in assay [4], the “MIC (μg/mL) B” value turned out to be 0.5 µg/mL (≈ 0.6 µM). Further, the “MIC (μg/mL) E” value in assay [5] was 4 µg/mL (≈ 4.8 µM).

Regarding `CCC1OC(=O)C(C)C(=O)C(C)C(OC2OC(C)CC(N(C)C)C2O)C(C)(OC(=O)NCc2ccc(C=Cc3ccc4ccccc4n3)cc2)CC(C)C(=O)C(C)C2CC(=O)OC12C` (centres unmarked) [Compound 36], the “MIC (μg/mL) D” value in assay [1] is 0.25 µg/mL (≈ 0.283 µM). In assay [2], the “MIC (μg/mL) C” value was 1 µg/mL (≈ 1.13 µM). In addition, the “MIC (μg/mL) A” value in assay [3] was >16 µg/mL. In addition, the “MIC (μg/mL) B” value in assay [4] came to 4 µg/mL (≈ 4.52 µM). Besides, the “MIC (μg/mL) E” value in assay [5] came out at 16 µg/mL (≈ 18.1 µM).

As to `CC[C@H]1OC(=O)[C@H](C)C(=O)[C@H](C)[C@@H](OC2O[C@H](C)C[C@H](N(C)C)[C@H]2O)[C@](C)(OC(=O)NC/C=C/c2cn(-c3ncccn3)cn2)C[C@@H](C)C(=O)C(C)C2CC(=O)O[C@@]21C` (some centres unmarked) [Compound 37], the MIC is 0.03 µg/mL (≈ 0.0364 µM) in assay [1] (Streptococcus pneumoniae); 0.12 µg/mL (≈ 0.145 µM) in assay [2] (Enterococcus faecalis); > 16 µg/mL in assay [3] (Escherichia coli); 0.5 µg/mL (≈ 0.606 µM) in assay [4] (Staphylococcus aureus); 4 µg/mL (≈ 4.85 µM) in assay [5] (Haemophilus influenzae).

As for `CCC1OC(=O)C(C)C(=O)C(C)C(OC2OC(C)CC(N(C)C)C2O)C(C)(OC(=O)NCC=Cc2ccc3nccnc3c2)CC(C)C(=O)C(C)C2CC(=O)OC12C` (centres unmarked) [Compound 38], the “MIC (μg/mL) D” value in assay [1] stood at 0.03 µg/mL (≈ 0.0371 µM). In addition, the “MIC (μg/mL) C” value in assay [2] was determined as 0.12 µg/mL (≈ 0.148 µM). Also, the “MIC (μg/mL) A” value in assay [3] was >16 µg/mL. The “MIC (μg/mL) B” value in assay [4] was found to be 0.5 µg/mL (≈ 0.618 µM). Also, in assay [5], the “MIC (μg/mL) E” value was 2 µg/mL (≈ 2.47 µM).

As for `CCC1OC(=O)C(C)C(=O)C(C)C(OC2OC(C)CC(N(C)C)C2O)C(C)(OC(=O)NCC=Cc2ccnc3ccccc23)CC(C)C(=O)C(C)C2CC(=O)OC12C` (centres unmarked) [Compound 39], the “MIC (μg/mL) D” value in assay [1] was found to be 0.03 µg/mL (≈ 0.0371 µM). Besides, the “MIC (μg/mL) C” value in assay [2] was 0.12 µg/mL (≈ 0.149 µM). Further, the “MIC (μg/mL) A” value in assay [3] amounted to 16 µg/mL (≈ 19.8 µM). In addition, the “MIC (μg/mL) B” value in assay [4] amounted to 0.5 µg/mL (≈ 0.619 µM). Moreover, in assay [5], the “MIC (μg/mL) E” value was 4 µg/mL (≈ 4.95 µM).

For `CCC1OC(=O)C(C)C(=O)C(C)C(OC2OC(C)CC(N(C)C)C2O)C(C)(OC(=O)NCC=Cc2cncc(-c3ncccn3)c2)CC(C)C(=O)C(C)C2CC(=O)OC12C` (centres unmarked) [Compound 40], the “MIC (μg/mL) D” value in assay [1] was 0.03 µg/mL (≈ 0.0359 µM). Besides, the “MIC (μg/mL) C” value in assay [2] amounted to 0.12 µg/mL (≈ 0.144 µM). Further, the “MIC (μg/mL) A” value in assay [3] amounted to 16 µg/mL (≈ 19.1 µM). Besides, in assay [4], the “MIC (μg/mL) B” value worked out at 0.25 µg/mL (≈ 0.299 µM). Moreover, in assay [5], the “MIC (μg/mL) E” value is 1 µg/mL (≈ 1.2 µM).
